# From the supplement of paper PMC10307832
# How the values were obtained:
# Assay in all cases: relative viability (nuclei count vs DMSO), 5 days (fraction); higher = more cells survive
# Sunitinib + AZD7762 = compound: CCN(CC)CCNC(=O)c1c(C)[nH]c(/C=C2\C(=O)Nc3ccc(F)cc32)c1C [Sunitinib] + NC(=O)Nc1cc(-c2cccc(F)c2)sc1C(=O)N[C@H]1CCCNC1 [AZD7762] (partner 0.2 µM)
# Procedure, shortened: (§1)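 Lung cancer cell lines were seeded in 1536-well plates and dosed by pin tool the next day, with either a single drug or a fixed anchor-drug dose combined with five library-drug doses (not always all listed) spaced in √10 steps. Five days later, one step fixed the cells and stained their nuclei (final 0.05% Triton X-100, 1% formaldehyde, 1 ug/ml Hoechst), and nuclei were counted on 4× images. Relative viability is the nuclei count in treated wells divided by the count in vehicle wells, and each value is the median of duplicate plates.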
# Sunitinib + Alpelisib = compound: CCN(CC)CCNC(=O)c1c(C)[nH]c(/C=C2\C(=O)Nc3ccc(F)cc32)c1C [Sunitinib] + Cc1nc(NC(=O)N2CCC[C@H]2C(N)=O)sc1-c1ccnc(C(C)(C)C(F)(F)F)c1 [Alpelisib] (partner 2 µM)
# Procedure, shortened: as §1
# Sunitinib + Phenformin = compound: CCN(CC)CCNC(=O)c1c(C)[nH]c(/C=C2\C(=O)Nc3ccc(F)cc32)c1C [Sunitinib] + N=C(N)NC(=N)NCCc1ccccc1 [Phenformin] (partner 250 µM)
# Procedure, shortened: as §1
# Sunitinib + Pictilisib = compound: CCN(CC)CCNC(=O)c1c(C)[nH]c(/C=C2\C(=O)Nc3ccc(F)cc32)c1C [Sunitinib] + CS(=O)(=O)N1CCN(Cc2cc3nc(-c4cccc5[nH]ncc45)nc(N4CCOCC4)c3s2)CC1 [Pictilisib] (partner 1 µM)
# Procedure, shortened: as §1
Cell Line,relative viability (Sunitinib + AZD7762; first compound 0.02 µM),relative viability (Sunitinib + AZD7762; first compound 0.06325 µM),relative viability (Sunitinib + AZD7762; first compound 0.2 µM),relative viability (Sunitinib + AZD7762; first compound 0.6325 µM),relative viability (Sunitinib + AZD7762; first compound 2 µM),relative viability (Sunitinib + Alpelisib; first compound 0.02 µM),relative viability (Sunitinib + Alpelisib; first compound 0.2 µM),relative viability (Sunitinib + Alpelisib; first compound 2 µM),relative viability (Sunitinib + Phenformin; first compound 0.02 µM),relative viability (Sunitinib + Phenformin; first compound 0.06325 µM),relative viability (Sunitinib + Phenformin; first compound 0.2 µM),relative viability (Sunitinib + Phenformin; first compound 0.6325 µM),relative viability (Sunitinib + Phenformin; first compound 2 µM),relative viability (Sunitinib + Pictilisib; first compound 0.02 µM),relative viability (Sunitinib + Pictilisib; first compound 0.06325 µM),relative viability (Sunitinib + Pictilisib; first compound 0.2 µM),relative viability (Sunitinib + Pictilisib; first compound 0.6325 µM),relative viability (Sunitinib + Pictilisib; first compound 2 µM),relative viability (Sunitinib + Alpelisib; first compound 0.06325 µM),relative viability (Sunitinib + Alpelisib; first compound 0.6325 µM)
201T,0.544,0.705,0.688,0.664,0.588,1.04,1.06,1.02,0.444,0.468,0.496,0.468,0.434,0.697,0.708,0.738,0.675,0.738,,
A-427,0.773,0.761,0.777,0.711,0.679,1.06,1.15,1.05,0.263,0.383,0.315,0.301,0.279,0.702,0.8,0.926,0.748,0.73,1.06,1.08
ABC-1,0.77,0.863,0.921,0.865,0.927,1.08,1.2,0.837,0.218,0.254,0.218,0.242,0.225,0.818,,0.668,0.991,0.802,0.994,1.26
BEN,0.774,0.755,0.815,0.661,0.66,0.898,1.04,0.955,0.277,0.266,0.267,0.275,0.265,0.494,0.552,0.615,0.566,0.52,1.1,0.991
CAL-12T,0.648,0.663,0.65,0.731,0.76,0.957,1.25,1.14,0.515,0.648,0.591,0.702,0.518,0.47,0.58,0.431,0.628,0.414,1.19,1.43
COR-L23,,,,,,0.897,0.935,0.891,0.421,0.482,0.469,0.443,0.461,0.788,1.04,0.97,0.881,0.812,0.724,0.917
COR-L 105,,,,,,0.925,1.04,0.829,0.415,0.544,0.496,0.49,0.471,0.371,0.415,0.569,0.364,0.409,0.835,1.23
Calu-6,,,,,,0.904,1.11,0.898,,,,,,0.901,0.887,1.13,1.09,0.93,1.1,1.16
ChaGo-K-1,0.892,0.885,0.984,0.915,0.88,,,,0.409,0.543,0.508,0.516,0.488,0.766,0.786,0.774,0.624,0.756,,
EBC-1,,,,,,0.857,0.871,1,,,,,,0.41,0.377,0.463,0.411,0.46,0.971,0.87
EKVX,0.755,0.783,0.735,0.688,0.716,0.907,,0.909,0.242,0.234,0.236,0.256,0.248,0.456,0.437,0.578,0.495,0.577,,0.996
EMC-BAC-2,1.08,1.24,1.22,1.27,1.2,0.712,0.901,0.72,0.489,0.566,0.595,0.559,0.543,0.501,0.601,0.589,0.548,0.565,0.742,0.791
EPLC-272H,0.26,0.298,0.301,0.175,0.229,0.885,1,0.729,0.335,0.334,0.324,0.313,0.263,0.313,0.336,0.297,0.338,0.334,0.668,1
H3255,0.968,0.888,,0.871,0.871,0.696,0.776,0.707,0.4,0.383,0.344,0.411,0.365,0.465,0.495,0.519,0.514,0.495,0.756,0.891
HARA,0.355,0.337,0.582,0.29,0.301,0.816,0.979,0.743,0.478,0.495,0.484,0.399,0.43,0.397,0.374,0.606,0.31,0.323,0.947,
HCC-15,1.17,1.28,1.37,1.09,1.41,0.831,1.01,0.94,0.424,0.523,0.588,0.49,0.404,0.68,0.791,0.888,0.749,0.774,,0.872
HCC-44,1.05,1.08,1.01,1.01,1.05,0.72,0.966,0.826,0.29,0.238,0.274,0.145,0.142,0.524,0.653,0.968,0.786,0.598,0.909,0.863
HCC-78,0.554,0.609,0.727,0.485,0.713,0.364,0.321,0.419,0.639,0.726,0.71,0.677,0.806,0.206,,0.227,,0.246,,
